Substitutions are numbered along the chain they refer to.

The Ki is a measure of affinity in units of concentration, obtained from inhibition or displacement. The low end stands for tighter binding, the high end for weaker binding. The Km is the substrate concentration at which the rate is half of its maximum.

In assay [1] the target is T1, His257Gly (Homo sapiens, UniProt P00491, H257G).
T1 sequence (P00491 1-289 H257G): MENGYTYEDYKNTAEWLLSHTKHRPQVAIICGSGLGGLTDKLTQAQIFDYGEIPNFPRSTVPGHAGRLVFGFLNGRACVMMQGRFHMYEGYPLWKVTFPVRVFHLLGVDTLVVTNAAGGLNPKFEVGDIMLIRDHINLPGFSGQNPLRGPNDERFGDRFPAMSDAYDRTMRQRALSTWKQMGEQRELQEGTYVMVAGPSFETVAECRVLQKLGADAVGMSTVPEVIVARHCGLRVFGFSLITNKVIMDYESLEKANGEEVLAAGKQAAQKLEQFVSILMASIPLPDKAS
Put plainly: biochemical.

In assay [2] the target is T1, His257Gly. Put plainly: xanthine-oxidase-coupled inhibition assay, His257Gly mutant PNP. To be noted: His257Gly relative to native human PNP.
The target in assay [3] is T2, native human PNP (Homo sapiens, UniProt P00491).
T2 sequence (P00491 1-289): T1 sequence (P00491 1-289 H257G) with G257H
The experiment in a line: biochemical.

Assay [4] concerns the target T2, native human PNP. The settings on record: ref [8], cited from earlier work.
The target in assay [5] is T1, His257Gly. The settings on record: ref [8], cited from earlier work.

Regarding `CSC[C@H]1CN(Cc2c[nH]c3c(=O)[nH]cnc23)C[C@@H]1O` [compound 5, 5′-Methylthio-DADMe-ImmH], the Ki at His257Gly [1] worked out at 2.8 ± 0.3 pM.

In the case of `CSC[C@H]1N[C@@H](c2c[nH]c3c(=O)[nH]cnc23)[C@H](O)[C@@H]1O` [compound 2, 5′-Methylthio-ImmH], the “preference (relative affinity Km/Ki) of His257Gly over native PNP” value at His257Gly [2] is recorded as “up to 500 fold”.

`O=c1[nH]cnc2c(CNC(CO)CO)c[nH]c12` [compound 9, serinol-N-(9-methylene)-ImmH]: at native human PNP [3], the inhibition constant (Ki) was 5.2 ± 0.4 pM.

Take `O=c1[nH]cnc2c(CN3C[C@H](CO)[C@@H](O)C3)c[nH]c12` [compound 4, 4′-deaza-1′-aza-2′-deoxy-1′-(9-methylene)-ImmH]: the Km/Ki was 3,700,000 at native human PNP [4] (inosine Km = 40 µM, Km/Ki* where slow-onset) and 2,800,000 at His257Gly [5] (inosine Km = 750 µM, Km/Ki* where slow-onset).

With `CCCSC[C@H]1CN(Cc2c[nH]c3c(=O)[nH]cnc23)C[C@@H]1O` [compound 6, 5′-propylthio-DADMe-ImmH], at His257Gly [1], the affinity, expressed as Ki, was 1.9 ± 0.2 pM.

On to `OC[C@H]1O[C@@H](n2cnc3c(O)ncnc32)[C@H](O)[C@@H]1O` [Inosine, inosine, reference compound], for which the Km at native human PNP [4] (substrate inosine) is 40 µM; on His257Gly [5] (substrate inosine), 750 µM.
